# Literature values as cited in PMC3867298 (Clinical cancer research : an official journal of the …, 2010).
# System: renal cell carcinoma patients
# Conditions: 375 renal cell carcinoma patients, recommended phase 2 dose; cited from earlier work
structure (smiles),measurement,value
CCN(CC)CCNC(=O)c1c(C)[nH]c(/C=C2\C(=O)Nc3ccc(F)cc32)c1C [sunitinib],Patients with at least 1 treatment-related dose reduction,32%
